From US20110183954A1, “TRICYCLIC 2,4-DIAMINO-L,3,5-TRIAZINE DERIVATIVES USEFUL FOR THE TREATMENT OF CANCER AND MYELOPROLIFERATIVE DISORDERS” (ASTRAZENECA AB, priority 2008, published 2011)

target: human JAK2 (Homo sapiens, UniProt O60674); test: Method 1 (JAK2): Amplified Luminescent Proximity Assay (Alphascreen); type: biochemical; set-up: His6 (C); purchased Upstate Biotechnology; host or cells: baculovirus in Sf21 cells; settings: 150 pM JAK2 enzyme, 5 mM ATP, 60 minutes, room temperature, read-out: IC50 (JAK inhibitory activity, Method 1 (JAK2))
Sequence (O60674 808-1132 limits assumed): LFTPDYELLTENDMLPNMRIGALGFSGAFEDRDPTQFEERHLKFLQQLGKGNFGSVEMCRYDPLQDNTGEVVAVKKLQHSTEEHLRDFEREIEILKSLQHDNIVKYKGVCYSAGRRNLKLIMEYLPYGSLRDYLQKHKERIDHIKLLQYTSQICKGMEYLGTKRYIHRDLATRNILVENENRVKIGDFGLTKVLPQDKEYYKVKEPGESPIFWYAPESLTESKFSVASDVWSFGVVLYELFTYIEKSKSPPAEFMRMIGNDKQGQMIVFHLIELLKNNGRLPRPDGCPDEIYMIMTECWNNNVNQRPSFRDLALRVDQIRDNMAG
Source text: JAK2 kinase activity may be determined by measuring the kinase's ability to phosphorylate synthetic tyrosine residues within a generic polypeptide substrate using an Amplified Luminescent Proximity Assay (Alphascreen) technology (PerkinElmer, 549 Albany Street, Boston, Mass.).
To measure JAK2 kinase activity, a commercially available purified enzyme may be used. The enzyme may be a C-terminal His6-tagged, recombinant, human JAK2, amino acids 808-end, (Genbank Accession number NM 004972) expressed by baculovirus in Sf21 cells (Upstate Biotechnology MA). After incubation of the kinase with a biotinylated substrate and adenosine triphosphate (ATP) for 60 minutes at room temperature, the kinase reaction may be stopped by the addition of 30 mM ethylenediaminetetraacetic acid (EDTA). The reaction may be performed in 384 well microtitre plates and the reaction products may be detected with the addition of streptavidin coated Donor Beads and phosphotyrosine-specific antibodies coated Acceptor Beads using the EnVision Multilabel Plate Reader after an overnight incubation at room temperature.

Compound	IC50
C[C@H](Nc1nc(Nc2cn(CC(F)(F)F)cn2)nc(N2CCOCC2)n1)c1ncc(F)cn1 [Example 34, N-[(1S)-1-(5-fluoropyrimidin-2-yl)ethyl]-6-morpholin-4-yl-N′-[1-(2,2,2-trifluoroethyl)-1H-imidazol-4-yl]-1,3,5-triazine-2,4-diamine]	8320 nM
COC[C@H](Nc1nc(Nc2cn(C)cn2)nc(N2CCOC(C)C2)n1)c1ncc(F)cc1F (stereo partly drawn) [Example 2, N-[(1R)-1-(3,5-Difluoropyridin-2-yl)-2-methoxyethyl]-N′-(1-methyl-1H-imidazol-4-yl)-6-(2-methylmorpholin-4-yl)-1,3,5-triazine-2,4-diamine]	11 nM
COC[C@H](Nc1nc(Nc2cn(C)cn2)nc(N2CCOCC2)n1)c1ncc(F)cc1F [Example 4, N-[(1R)-1-(3,5-Difluoropyridin-2-yl)-2-methoxyethyl]-N′-(1-methyl-1H-imidazol-4-yl)-6-morpholin-4-yl-1,3,5-triazine-2,4-diamine]	4 nM
C[C@H](Nc1nc(Nc2cscn2)nc(N2CCOCC2)n1)c1ncc(F)cn1 [Example 26, N-[(1S)-1-(5-Fluoropyrimidin-2-yl)ethyl]-6-morpholin-4-yl-N′-1,3-thiazol-4-yl-1,3,5-triazine-2,4-diamine]	219 nM
C[C@H](Nc1nc(Nc2cn(C)cn2)nc(N2CCOC[C@H]2CO)n1)c1ncc(F)cc1F [Example 22, [(3R)-4-(4-{[(1S)-1-(3,5-difluoropyridin-2-yl)ethyl]amino}-6-[(1-methyl-1H-imidazol-4-yl)amino]-1,3,5-triazin-2-yl)morpholin-3-yl]methanol]	4 nM
C[C@H](Nc1nc(Nc2cn(C3CC3)cn2)nc(N2CCOCC2)n1)c1ncc(F)cn1 [Example 32, N-(1-Cyclopropyl-1H-imidazol-4-yl)-N′-[(1S)-1-(5-fluoropyrimidin-2-yl)ethyl]-6-morpholin-4-yl-1,3,5-triazine-2,4-diamine]	393 nM
CCn1cnc(Nc2nc(N[C@@H](C)c3ncc(F)cc3F)nc(N3CCOCC3)n2)c1 [Example 31, N-[(1S)-1-(3,5-difluoropyridin-2-yl)ethyl]-N′-(1-ethyl-1H-imidazol-4-yl)-6-morpholin-4-yl-1,3,5-triazine-2,4-diamine]	234 nM
C[C@H](Nc1nc(Nc2cn(CC#N)cn2)nc(N2CCOCC2)n1)c1ncc(F)cn1 [Example 15, {4-[(4-{[(1S)-1-(5-Fluoropyrimidin-2-yl)ethyl]amino}-6-morpholin-4-yl-1,3,5-triazin-2-yl)amino]-1H-imidazol-1-yl}acetonitrile]	873 nM
C[C@H](Nc1nc(Nc2cn(C)cn2)nc(N2CC(F)C2)n1)c1ncc(F)cc1F [Example 18, N-[(1S)-1-(3,5-Difluoropyridin-2-yl)ethyl]-6-(3-fluoroazetidin-1-yl)-N′-(1-methyl-1H-imidazol-4-yl)-1,3,5-triazine-2,4-diamine]	13 nM
COC1CN(c2nc(Nc3cn(C)cn3)nc(N[C@@H](C)c3ncc(F)cn3)n2)C1 [Example 20, N-[(1S)-1-(5-Fluoropyrimidin-2-yl)ethyl]-6-(3-methoxyazetidin-1-yl)-N′-(1-methyl-1H-imidazol-4-yl)-1,3,5-triazine-2,4-diamine]	7 nM
C[C@H](Nc1nc(Nc2cn(CCc3ccccc3)cn2)nc(N2CCOCC2)n1)c1ncc(F)cn1 [Example 6, N-[(1S)-1-(5-Fluoropyrimidin-2-yl)ethyl]-6-morpholin-4-yl-N′-[1-(2-phenylethyl)-1H-imidazol-4-yl]-1,3,5-triazine-2,4-diamine]	283 nM
C[C@H](Nc1nc(Nc2cn(C)cn2)nc(N2CCC(F)(F)CC2)n1)c1ncc(F)cn1 [Example 14, 6-(4,4-Difluoropiperidin-1-yl)-N-[(1S)-1-(5-fluoropyrimidin-2-yl)ethyl]-N′-(1-methyl-1H-imidazol-4-yl)-1,3,5-triazine-2,4-diamine]	7 nM
CCn1cnc(Nc2nc(N[C@@H](C)c3ncc(F)cn3)nc(N3CCOCC3)n2)c1 [Example 35, N-(1-Ethyl-1H-imidazol-4-yl)-N′-[(1S)-1-(5-fluoropyrimidin-2-yl)ethyl]-6-morpholin-4-yl-1,3,5-triazine-2,4-diamine]	23 nM
C[C@H](Nc1nc(Nc2cn(C)cn2)nc(N2CCC(F)CC2)n1)c1ncc(F)cc1F [Example 21, N-[(1S)-1-(3,5-Difluoropyridin-2-yl)ethyl]-6-(4-fluoropiperidin-1-yl)-N′-(1-methyl-1H-imidazol-4-yl)-1,3,5-triazine-2,4-diamine]	4 nM
COC[C@H](Nc1nc(Nc2cn(C)cn2)nc(N2CCOC(C)(C)C2)n1)c1ncc(F)cc1F [Example 3, N-[(1R)-1-(3,5-Difluoropyridin-2-yl)-2-methoxyethyl]-6-(2,2-dimethylmorpholin-4-yl)-N-(1-methyl-1H-imidazol-4-yl)-1,3,5-triazine-2,4-diamine]	9 nM
C[C@H](Nc1nc(Nc2cn(C)cn2)nc(N2CCC(F)(F)CC2)n1)c1ncc(F)cc1F [Example 9, 6-(4,4-Difluoropiperidin-1-yl)-N-[(1S)-1-(3,5-difluoropyridin-2-yl)ethyl]-N-(1-methyl-1H-imidazol-4-yl)-1,3,5-triazine-2,4-diamine]	4 nM
C[C@H](Nc1nc(Nc2cn(C)cn2)nc(N2CCOCC2)n1)c1ncc(F)cc1F (single isomer, unassigned) [Example 10(b)]	< 8 nM

Results, then the molecule that gave them:

IC50	Compound
2870 nM	COCn1cnc(Nc2nc(N[C@@H](C)c3ncc(F)cn3)nc(N3CCOCC3)n2)c1 [Example 16, N-[(1S)-1-(5-Fluoropyrimidin-2-yl)ethyl]-N′-[1-(methoxymethyl)-1H-imidazol-4-yl]-6-morpholin-4-yl-1,3,5-triazine-2,4-diamine]
190 nM	C[C@@H](Nc1nc(Nc2cn(C)cn2)nc(N2CCOCC2)n1)c1ncc(F)cc1F (single isomer, unassigned) [Example 10(a)]
2880 nM	CC(C)n1cnc(Nc2nc(N[C@@H](C)c3ncc(F)cn3)nc(N3CCOCC3)n2)c1 [Example 17, N-[(1S)-1-(5-Fluoropyrimidin-2-yl)ethyl]-N′-(1-isopropyl-1H-imidazol-4-yl)-6-morpholin-4-yl-1,3,5-triazine-2,4-diamine]
798 nM	C[C@H](Nc1nc(Nc2cn(C)cn2)nc(N2CCOCC2)n1)c1ccc(C#N)cc1 [Example 28, 4-[(1S)-1-({4-[(1-methyl-1H-imidazol-4-yl)amino]-6-morpholin-4-yl-1,3,5-triazin-2-yl}amino)ethyl]benzonitrile]
3170 nM	C[C@H](Nc1nc(Nc2ncc(C#N)s2)nc(N2CCOCC2)n1)c1ncc(F)cn1 [Example 7, 2-[(4-{[(1S)-1-(5-Fluoropyrimidin-2-yl)ethyl]amino}-6-morpholin-4-yl-1,3,5-triazin-2-yl)amino]-1,3-thiazole-5-carbonitrile]
18 nM	COC[C@H](Nc1nc(Nc2cn(C)cn2)nc(N2C[C@@H](C)O[C@@H](C)C2)n1)c1ncc(F)cc1F [Example 1, N-[(1R)-1-(3,5-Difluoropyridin-2-yl)-2-methoxyethyl]-6-[(2R,6S)-2,6-dimethylmorpholin-4-yl]-N′-(1-methyl-1H-imidazol-4-yl)-1,3,5-triazine-2,4-diamine]
9 nM	C[C@H](Nc1nc(Nc2cn(C)cn2)nc(N2CCOCC2)n1)c1ncc(F)cn1 [Example 5, N-[(1S)-1-(5-Fluoropyrimidin-2-yl)ethyl]-N′-(1-methyl-1H-imidazol-4-yl)-6-morpholin-4-yl-1,3,5-triazine-2,4-diamine]
